The values below come from US12297197B2, “Pyrazolopyridine compound as RET inhibitor and application thereof” (GUANGZHOU BAIYUNSHAN PHARMACEUTICAL HOLDINGS CO., LTD. …, priority 2019, dated 2025).

One experiment addresses RET kinase (Homo sapiens, UniProt P07949). Nature of the experiment: In-vitro enzyme activity test, RET kinase. The class given is biochemical. The conditions noted are these: ATP 20 μM; 10 concentrations 3 μM to 0.152 nM. As to the method:
(§1) The enzyme activity was detected by a Z′-LYTE™ kinase test, and inhibitory effects of the compounds onRET and RET (V804M) kinases were evaluated with an ICs value of each compound as an index.
(§2) The compounds used for RET and RET (V804M) kinase tests were diluted 3-fold, in 10 concentration gradients ranging from 3 μM to 0.152 nM; and the content of DMSO in detection reaction was 1%.
(§3) Basic reaction buffer, 20 mM 4-(2-hydroxyethyl)piperazine-1-ethanesulfonic acid (Hepes) buffer (pH 7.5), 10 mM MgCl2. 1 mM 1,2-bis[2-[bis(carboxymethyl)amino]ethoxy]ethane (EGTA), 0.02% polyoxyethylene lauryl ether (Brij35), 0.02 mg/mL bovine serum albumin, 0.1 mM of Na3VO4, 2 mM dithiothreitol (DTT) and 1% DMSO.
(§4) The compounds to be tested were dissolved in a 100% DMSO system to be diluted to 10 mM for further use. The solution was diluted by using Integra Viaflo Assist.
(§5) Test conditions: concentrations of RET kinase, peptide substrate CHKtide and adenosine triphosphate (ATP) were […], 1000 μM and 20 μM, respectively, and concentrations of RET (V804M) kinase, substrate peptide and ATP were […], 1000 μM and 30 μM, respectively.
(§6) Reaction process: compound solutions of different concentrations were added to a kinase/peptide solution prepared according to the test conditions, the obtained solution was incubated at room temperature for 20 minutes, and then 33P-ATP of corresponding concentrations were added, and the obtained solution was incubated at room temperature for 120 minutes. The radioactivity was detected by a filter-binding method.
(§7) The reaction was terminated by adding phosphoric acid (concentration, 0.5%) into a kinase reaction solution, and plate reading was carried out with an Envision instrument.
(§8) Data were converted into phosphorylation rate and inhibition rate, and the parametric curve was fitted by using GraphPad Software to obtain IC50 data of the compounds.

The target in a further experiment is RET (V804M) kinase (Homo sapiens, UniProt P07949, V804M). In words: In-vitro enzyme activity test, RET (V804M) kinase. The class given is biochemical. The following applies: ATP 30 μM; 10 concentrations 3 μM to 0.152 nM. How it is done: as §1, §2, §3, §4, §5, §6, §7, §8

Counter-ions that a name gives are not always drawn.

Sequence of RET kinase (P07949 29-1114): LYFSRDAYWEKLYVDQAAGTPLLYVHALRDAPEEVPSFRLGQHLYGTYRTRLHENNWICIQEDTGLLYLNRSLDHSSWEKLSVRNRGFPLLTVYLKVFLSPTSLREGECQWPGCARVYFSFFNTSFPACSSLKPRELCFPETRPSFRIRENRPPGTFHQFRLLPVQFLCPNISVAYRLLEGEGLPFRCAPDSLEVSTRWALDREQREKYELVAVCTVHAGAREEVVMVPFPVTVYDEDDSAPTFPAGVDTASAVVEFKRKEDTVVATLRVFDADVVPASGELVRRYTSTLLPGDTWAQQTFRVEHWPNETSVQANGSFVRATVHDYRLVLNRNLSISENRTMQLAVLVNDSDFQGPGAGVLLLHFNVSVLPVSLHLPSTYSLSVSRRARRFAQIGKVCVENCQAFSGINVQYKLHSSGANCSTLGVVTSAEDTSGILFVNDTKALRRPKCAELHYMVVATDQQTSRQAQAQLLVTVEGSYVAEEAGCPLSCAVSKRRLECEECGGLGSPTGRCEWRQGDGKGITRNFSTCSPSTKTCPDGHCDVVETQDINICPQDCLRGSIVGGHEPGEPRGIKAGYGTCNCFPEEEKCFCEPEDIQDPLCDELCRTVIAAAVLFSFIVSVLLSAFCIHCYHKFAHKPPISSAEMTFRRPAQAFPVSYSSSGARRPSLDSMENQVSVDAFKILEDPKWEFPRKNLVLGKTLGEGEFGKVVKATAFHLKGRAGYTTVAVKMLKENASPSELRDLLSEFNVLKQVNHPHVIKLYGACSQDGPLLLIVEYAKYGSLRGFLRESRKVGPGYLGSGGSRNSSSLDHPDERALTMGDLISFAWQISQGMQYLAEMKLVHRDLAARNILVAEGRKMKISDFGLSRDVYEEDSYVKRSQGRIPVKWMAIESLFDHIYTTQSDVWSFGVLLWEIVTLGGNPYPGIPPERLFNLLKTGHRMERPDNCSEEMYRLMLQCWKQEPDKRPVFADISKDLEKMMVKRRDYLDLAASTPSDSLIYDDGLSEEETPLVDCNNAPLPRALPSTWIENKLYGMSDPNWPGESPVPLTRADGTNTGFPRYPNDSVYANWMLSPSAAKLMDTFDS
Sequence of RET (V804M) kinase (P07949 29-1114 V804M): as the sequence (P07949 29-1114) above, with V776M counted along it

Consider `COc1ccc(CN2C3CC2CN(c2ccc(-c4cc(C5=CCNC(C)C5)cn5ncc(C#N)c45)cn2)C3)cn1` (stereo not drawn) [Compound 41], for which the IC50 (in general, the concentration that inhibits the measured activity by half) at RET kinase was 3.09 nM; at RET (V804M) kinase it was 11.3 nM.
As for `N#Cc1cnn2cc(C3=CCOCC3)cc(-c3ccc(N4CC5CC(C4)N5Cc4ccc5[nH]ccc5c4)nc3)c12` [Compound 38], the IC50 against RET kinase worked out at 1.21 nM; against RET (V804M) kinase, 5.93 nM.
`COc1ccc(CN2C3CC2CN(c2ccc(-c4cc(C5=CCOC5)cn5ncc(C#N)c45)cn2)C3)cn1` [Trifluoroacetate of compound 54] came in with an IC50 on RET kinase of 2.42 nM.
Turning to `N#Cc1cnn2cc(N3CCOCC3)cc(-c3ccc(N4CC5CC(C4)N5Cc4cnc5c(c4)OCO5)nc3)c12` [Trifluoroacetate of compound 13], the results for the IC50 on RET kinase and on RET (V804M) kinase were 1.57 nM and 3.49 nM, respectively.
For `C[C@@H](C(=O)N1CCN(c2ccc(-c3cc(N4CCOCC4)cn4ncc(C#N)c34)cn2)CC1)c1ccccc1` [Hydrochloride of compound 4] the same measures were 2.42 nM and 22.7 nM.
On the same counts, the results for `CO[C@H]1C[C@@H](NC(=O)C2CCN(c3ccc(-c4cc(N5CCCC5)cn5ncc(C#N)c45)cn3)CC2)C1` [Trifluoroacetate of compound 61] are 1.77 nM and 8.85 nM.
Turning to `COc1ccc(CN2CCN(c3ccc(-c4cc(C5=CCOCC5)cn5ncc(C#N)c45)cn3)CC2)cn1` [Hydrochloride of compound 29], on RET kinase, the IC50 is 1.04 nM.
In the case of `COc1ccc(CN2C3CC2CN(c2ccc(-c4cc(C5=CCOCC5)cn5ncc(C#N)c45)cn2)C3)cn1` [Trifluoroacetate of compound 33], the IC50 against RET kinase came to 1.47 nM; against RET (V804M) kinase, 7.43 nM.
As for `COc1ccc(CN2C3CC2CN(c2ccc(-c4cc(N5CCNCC5)cn5ncc(C#N)c45)cn2)C3)cn1` [Trifluoroacetate of compound 10], the values for the IC50 on RET kinase and on RET (V804M) kinase were 0.69 nM and 3.79 nM, respectively.
As to `COc1ccc(CN2C3CC2CN(c2ccc(-c4cc(N5CC[C@@H](OC)C5)cn5ncc(C#N)c45)cn2)C3)cn1` [compound 79], on RET kinase, the IC50 is 1.39 nM.
As for `N#Cc1cnn2cc(C3=CCOCC3)cc(-c3ccc(N4CC5CC(C4)N5Cc4cnc5[nH]ccc5c4)nc3)c12` [Compound 35], the IC50 amounted to 1.57 nM against RET kinase and 5.47 nM against RET (V804M) kinase.
Regarding `COc1ccc(CN2C3CC2CN(c2ccc(-c4cc(N5CCN(C)C(=O)C5)cn5ncc(C#N)c45)cn2)C3)cn1` [Trifluoroacetate of compound 19], at RET kinase, the IC50 was determined as 2.35 nM.
For the compound `CN1CCC(c2cc(-c3ccc(N4CCN(Cc5c(F)cccc5F)CC4)nc3)c3c(C#N)cnn3c2)CC1` [Hydrochloride of compound 2], the half-maximal inhibitory concentration (IC50) against RET kinase was 95.5 nM; against RET (V804M) kinase it was 1410 nM.
As to `COc1ncc(CN2C3CC2CN(c2ccc(-c4cc(N5CCOCC5)cn5ncc(C#N)c45)cn2)C3)cc1F` [Trifluoroacetate of compound 15], the IC50 against RET kinase was found to be 1.21 nM.
Consider `N#Cc1cnn2cc(N3CCCC3)cc(-c3ccc(N4CCC(C(=O)NC5CC(F)(F)C5)CC4)nc3)c12` [Trifluoroacetate of compound 58], for which the IC50 was 1.8 nM on RET kinase and 7.81 nM against RET (V804M) kinase.
On the same counts, the results for `CN1CC=C(c2cc(-c3ccc(N4CCN(Cc5c(F)cccc5F)CC4)nc3)c3c(C#N)cnn3c2)C1` [Trifluoroacetate of compound 24] are 1.1 nM and 8.43 nM.
As to `COc1c(F)cc(CN2C3CC2CN(c2ccc(-c4cc(N5CCOCC5)cn5ncc(C#N)c45)cn2)C3)cc1F` [Trifluoroacetate of compound 11], the results for the IC50 against RET kinase and against RET (V804M) kinase were 1.3 nM and 0.61 nM, respectively.
On the same counts, the results for `COc1ccc(CN2C3CC2CN(c2cnc(-c4cc(N5CC[C@H](F)C5)cn5ncc(C#N)c45)cn2)C3)cn1` [Trifluoroacetate of compound 66] are 1.62 nM and 7.53 nM.
On the same counts, the results for `C[C@@H](C(=O)N1CCN(c2ccc(-c3cc(C4=CCOC4)cn4ncc(C#N)c34)cn2)CC1)c1ccccc1` [Trifluoroacetate of compound 28] are 1.58 nM and 11.6 nM.
In the case of `N#Cc1cnn2cc(N3CCOCC3)cc(-c3ccc(N4CC5CC(C4)N5Cc4cnc5[nH]ccc5c4Cl)nc3)c12` [Compound 16], half-maximal inhibition against RET kinase (IC50) was put at 6.08 nM.
For the compound `COc1ccc(CN2C3CC2CN(c2ccc(-c4cc(C5=CCC6(CC5)COC6)cn5ncc(C#N)c45)cn2)C3)cn1` [Trifluoroacetate of compound 47], at RET kinase, the IC50 turned out to be 0.63 nM.
Still for that read-out and setting: next, `COc1ccc(CN2C3CC2CN(c2ccc(-c4cc(N5CCN(C(C)=O)CC5)cn5ncc(C#N)c45)cn2)C3)cn1` [Trifluoroacetate of compound 20]: 0.9 nM; `COc1ccc(CN2C3CC2CN(c2ccc(-c4cc(N5CC[C@H](O)C5)cn5ncc(C#N)c45)cn2)C3)cn1` [Compound 71]: 0.59 nM.
On to `N#Cc1cnn2cc(C3=CCOCC3)cc(-c3cnc(N4CC5CC(C4)N5Cc4ccc5[nH]ccc5c4)cn3)c12` [Compound 45], for which the IC50 on RET kinase is 1.83 nM; against RET (V804M) kinase, 7.53 nM.
`COc1ccc(CN2C3CC2CN(c2ccc(-c4cc(N5CCC(C)(O)C5)cn5ncc(C#N)c45)cn2)C3)cn1` (stereo not drawn) [Trifluoroacetate of compound 82] returned an IC50 against RET kinase of 2.34 nM.
The same measure, in the same setting: the value for `COc1ccc(CN2C3CC2CN(c2ccc(-c4cc(C5=CCNC(C)(C)C5)cn5ncc(C#N)c45)cn2)C3)cn1` [Trifluoroacetate of compound 48] was 2.13 nM.
Same read-out and setting: next, `CN1CCC(c2cc(-c3ccc(N4CCN(Cc5c(F)cccc5F)CC4)nc3)c3c(C#N)cnn3c2)C1` (stereo not drawn) [Trifluoroacetate of compound 6]: 34.8 nM.
With `N#Cc1cnn2cc(N3CCOCC3)cc(-c3ccc(N4CC5CC(C4)N5Cc4cnc5[nH]ccc5c4)nc3)c12` [Trifluoroacetate of compound 14], the half-inhibitory concentration (IC50) at RET kinase was determined as 0.72 nM; against RET (V804M) kinase, 0.48 nM.
For `N#Cc1cnn2cc(C3CC3)cc(-c3ccc(N4CCN(Cc5c(F)cccc5F)CC4)nc3)c12` [Compound 1] the same measures were 3.66 nM and 36.1 nM.
On the same counts, the results for `CC(C)(O)CNC(=O)C1CCN(c2ccc(-c3cc(N4CCCC4)cn4ncc(C#N)c34)cn2)CC1` [Trifluoroacetate of compound 60] are 3.87 nM and 19.9 nM.
For `N#Cc1cnn2cc(C3=CCNCC3)cc(-c3ccc(N4CCN(Cc5c(F)cccc5F)CC4)nc3)c12` [Tfifluoroacetate of compound 25], the IC50 came to 1.62 nM against RET kinase and 11 nM on RET (V804M) kinase.
For `COc1ccc(CN2C3CC2CN(c2ccc(-c4cc(N5CCC(C)(O)CC5)cn5ncc(C#N)c45)cn2)C3)cn1` [Trifluoroacetate of compound 21], the IC50 on RET kinase was found to be 1.98 nM.
The same measure, in the same setting: next, `CCN1CCN(c2cc(-c3ccc(N4CC5CC(C4)N5Cc4ccc(OC)nc4)nc3)c3c(C#N)cnn3c2)CC1` [Trifluoroacetate of compound 17]: 5.25 nM; `N#Cc1cnn2cc(C3=CCOCC3)cc(-c3ccc(N4CC5CC(C4)N5Cc4ccc(C(F)(F)F)nc4)nc3)c12` [Trifluoroacetate of compound 56]: 0.96 nM; `COc1ccc(CN2C3CC2CN(c2ccc(-c4cc(N5CC[C@H](OC)C5)cn5ncc(C#N)c45)cn2)C3)cn1` [compound 78]: 0.77 nM.
For the compound `COc1ccc(CN2C3CC2CN(c2ccc(-c4cc(N5CC[C@@H](O)C5)cn5ncc(C#N)c45)cn2)C3)cn1` [Compound 70], 1.09 nM corresponded to half-maximal inhibition against RET kinase (IC50).
The same measure, in the same setting: next, `COc1ccc(CN2C3CC2CN(c2ccc(-c4cc(C5=CCC(C)(O)CC5)cn5ncc(C#N)c45)cn2)C3)cn1` (stereo not drawn) [Compound 42]: 1.13 nM.
On the same count and under the same terms, the value for `COc1ccc(CN2C3CC2CN(c2ccc(-c4cc(C5=CC(C)(C)OCC5)cn5ncc(C#N)c45)cn2)C3)cn1` [Compound 50] was 1.87 nM.
In turn, `COc1ccc(CN2C3CC2CN(c2ccc(-c4cc(C5=CCN(C)CC5)cn5ncc(C#N)c45)cn2)C3)cn1` [Trifluoroacetate of compound 46] showed a half-inhibitory concentration (IC50) against RET kinase of 1.16 nM.
The same measure, in the same setting: next, `N#Cc1cnn2cc(N3CC[C@@H](F)C3)cc(-c3ccc(N4CC5CC(C4)N5Cc4cnc5[nH]ccc5c4)nc3)c12` [Trifluoroacetate of compound 73]: 0.72 nM; `N#Cc1cnn2cc(C3=CCOCC3)cc(-c3ccc(N4CC5CC(C4)N5Cc4cnc5c(c4)OCO5)nc3)c12` [Trifluoroacetate of compound 44]: 2.34 nM; `N#Cc1cnn2cc(C3=CCOCC3)cc(-c3ccc(N4CC5CC(C4)N5Cc4ccnc5c4OCO5)nc3)c12` [Triftuoroacetate of compound 43]: 0.72 nM.
As to `COc1ccc(CN2C3CC2CN(c2ccc(-c4cc(C5=CCOC(C)(C)C5)cn5ncc(C#N)c45)cn2)C3)cn1` [Compound 51], the IC50 against RET kinase amounted to 1.73 nM.
On the same count and under the same terms, the value for `COc1ccc(CN2C3CC2CN(c2ccc(-c4cc(N5CCC(OC)C5)cn5ncc(C#N)c45)cn2)C3)cn1` (stereo not drawn) [Trifluoroacetate of compound 77] was 4.39 nM.
